The record followed here is ChEMBL document CHEMBL4033775, “Natural-Products-Inspired Use of the gem-Dimethyl Group in Medicinal Chemistry” (J Med Chem, 2018).

In brackets after ≈: the same amount, converted by molar mass.

One series concerns A549. The series can be described thus: Cytotoxicity against human A549 cells. It counts as functional, cell-based.
The next series deals with T1, Matrilysin (Homo sapiens, UniProt P09237).
T1 sequence (P09237 whole entry): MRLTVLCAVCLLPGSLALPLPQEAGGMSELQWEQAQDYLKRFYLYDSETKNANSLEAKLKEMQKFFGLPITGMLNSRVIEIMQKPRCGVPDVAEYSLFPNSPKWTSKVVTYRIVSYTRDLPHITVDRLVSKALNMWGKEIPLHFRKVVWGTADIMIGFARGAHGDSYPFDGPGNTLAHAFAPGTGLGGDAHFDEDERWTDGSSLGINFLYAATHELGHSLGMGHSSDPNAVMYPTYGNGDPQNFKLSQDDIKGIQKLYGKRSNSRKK
Briefly: Inhibition of MMP7 (unknown origin) expressed in Escherichia coli BL21(DE3) using Mca-Pro-Leu-Gly-Leu-Dpa-Ala-Arg-NH2 as substrate after 20 to 30 mins by spectrofluorimetric analysis.

The target in series [1] is Matrix metalloproteinase-9 (Homo sapiens, UniProt P14780). Briefly: Inhibition of MMP9 (unknown origin) expressed in Escherichia coli BL21(DE3) using Mca-Pro-Leu-Gly-Leu-Dpa-Ala-Arg-NH2 as substrate after 20 to 30 mins by spectrofluorimetric analysis.
Sequence of Matrix metalloproteinase-9 (P14780 whole entry): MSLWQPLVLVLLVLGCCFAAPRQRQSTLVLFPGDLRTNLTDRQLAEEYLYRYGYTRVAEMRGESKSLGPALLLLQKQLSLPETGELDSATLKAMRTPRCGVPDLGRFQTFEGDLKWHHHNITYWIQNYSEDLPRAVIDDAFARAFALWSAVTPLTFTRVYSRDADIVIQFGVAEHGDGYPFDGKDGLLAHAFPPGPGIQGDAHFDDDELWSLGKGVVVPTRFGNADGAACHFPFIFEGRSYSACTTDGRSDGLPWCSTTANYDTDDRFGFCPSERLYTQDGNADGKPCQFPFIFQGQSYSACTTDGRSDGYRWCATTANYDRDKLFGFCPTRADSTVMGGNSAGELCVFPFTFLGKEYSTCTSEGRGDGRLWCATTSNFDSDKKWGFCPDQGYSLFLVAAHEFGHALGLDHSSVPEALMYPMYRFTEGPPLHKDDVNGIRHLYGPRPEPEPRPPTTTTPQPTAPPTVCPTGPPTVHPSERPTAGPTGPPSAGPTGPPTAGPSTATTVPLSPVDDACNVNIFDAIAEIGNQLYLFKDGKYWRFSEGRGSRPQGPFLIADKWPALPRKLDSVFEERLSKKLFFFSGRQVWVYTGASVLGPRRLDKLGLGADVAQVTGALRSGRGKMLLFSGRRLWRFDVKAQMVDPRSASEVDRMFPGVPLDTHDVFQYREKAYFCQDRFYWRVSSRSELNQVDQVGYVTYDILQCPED
Series [2] deals with 72 kDa type IV collagenase (Homo sapiens, UniProt P08253). Briefly: Inhibition of MMP2 (unknown origin) expressed in Escherichia coli BL21(DE3) using Mca-Pro-Leu-Gly-Leu-Dpa-Ala-Arg-NH2 as substrate after 20 to 30 mins by spectrofluorimetric analysis.
Sequence of 72 kDa type IV collagenase (P08253 whole entry): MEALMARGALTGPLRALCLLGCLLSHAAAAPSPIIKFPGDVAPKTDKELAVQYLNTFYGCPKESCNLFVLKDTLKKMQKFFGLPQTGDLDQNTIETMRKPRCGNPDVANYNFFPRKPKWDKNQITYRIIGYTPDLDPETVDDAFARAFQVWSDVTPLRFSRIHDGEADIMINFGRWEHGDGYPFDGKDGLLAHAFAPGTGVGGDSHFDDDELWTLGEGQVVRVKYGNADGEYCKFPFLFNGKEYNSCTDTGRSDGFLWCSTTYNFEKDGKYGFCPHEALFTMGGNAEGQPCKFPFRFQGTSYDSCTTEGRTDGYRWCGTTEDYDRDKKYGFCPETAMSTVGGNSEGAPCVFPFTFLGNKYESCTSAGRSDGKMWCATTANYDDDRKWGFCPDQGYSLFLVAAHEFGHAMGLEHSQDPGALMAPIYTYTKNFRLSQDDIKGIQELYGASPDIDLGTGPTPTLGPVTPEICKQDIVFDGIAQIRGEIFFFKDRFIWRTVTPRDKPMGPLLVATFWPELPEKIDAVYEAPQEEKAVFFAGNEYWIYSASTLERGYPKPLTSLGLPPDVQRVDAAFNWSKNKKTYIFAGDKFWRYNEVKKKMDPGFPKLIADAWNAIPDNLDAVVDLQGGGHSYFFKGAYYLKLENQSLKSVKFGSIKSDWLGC
A further series has as its target Collagenase 3 (Homo sapiens, UniProt P45452). The series can be described thus: Inhibition of MMP13 (unknown origin) expressed in Escherichia coli BL21(DE3) using Mca-Pro-Leu-Gly-Leu-Dpa-Ala-Arg-NH2 as substrate after 20 to 30 mins by spectrofluorimetric analysis.
In the next series the target is Interstitial collagenase (Homo sapiens, UniProt P03956). Briefly: Inhibition of human interstitial recombinant N-terminal MMP1 expressed in Escherichia coli BL21(DE3) using Mca-Pro-Leu-Gly-Leu-Dpa-Ala-Arg-NH2 as substrate after 20 to 30 mins by spectrofluorimetric analysis.
Sequence of Interstitial collagenase (P03956 whole entry): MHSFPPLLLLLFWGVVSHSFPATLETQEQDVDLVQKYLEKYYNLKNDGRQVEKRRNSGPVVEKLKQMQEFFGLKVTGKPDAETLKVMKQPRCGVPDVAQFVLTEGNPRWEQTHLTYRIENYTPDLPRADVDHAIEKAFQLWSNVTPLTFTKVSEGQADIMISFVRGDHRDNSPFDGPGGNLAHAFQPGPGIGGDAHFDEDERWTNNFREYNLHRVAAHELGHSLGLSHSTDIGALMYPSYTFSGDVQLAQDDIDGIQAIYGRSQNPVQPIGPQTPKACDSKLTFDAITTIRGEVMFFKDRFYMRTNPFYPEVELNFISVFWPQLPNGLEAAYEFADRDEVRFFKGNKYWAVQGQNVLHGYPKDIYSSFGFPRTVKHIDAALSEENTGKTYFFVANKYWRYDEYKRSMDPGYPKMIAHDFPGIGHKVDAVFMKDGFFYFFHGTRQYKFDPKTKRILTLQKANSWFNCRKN
A short description of series [3]: Aqueous solubility of the compound at physiological pH. It counts as physicochemical. The note with it: buffer.
In series [4] the test system is Human immunodeficiency virus 1. Briefly: Antiviral activity against HIV1 3B infected in human H9 cells after 4 days by ELISA. It counts as functional, cell-based. The conditions noted are these: Human immunodeficiency virus 1, 3B, H9, 96 h.
For series [5], the system named is Human immunodeficiency virus. Briefly: Antiviral activity against Human immunodeficiency virus assessed as reduction in maturation. The conditions noted are these: Human immunodeficiency virus 1. Format: functional.

In the series with A549, `CO[C@H]1C(=O)[C@]2(C)[C@@H](OC)C[C@H]3OC[C@@]3(OC(C)=O)[C@H]2[C@H](OC(=O)c2ccccc2)[C@]2(O)C[C@H](OC(=O)[C@H](O)[C@@H](NC(=O)OC(C)(C)C)c3ccccc3)C(C)=C1C2(C)C` [CABAZITAXEL] came in with an IC50 of 1.48 nM. For the compound `COc1ccc(S(=O)(=O)N2CCSC(C)(C)C2C(=O)NO)cc1` (centres undefined), the IC50 came out at 23 nM against Matrilysin; 0.9 nM in series [1]; 1.4 nM in series [2]; 1 nM against Collagenase 3; 0.4 nM at Interstitial collagenase.

Consider `COc1ccc(S(=O)(=O)N2CCCSC(C)(C)[C@@H]2C(=O)NO)cc1`, for which the solubility in series [3] was 800 µg/mL (≈ 2140 µM). `CC(=O)O[C@@H]1[C@H](OC(=O)CC(C)C)c2c(ccc3ccc(=O)oc23)OC1(C)C` [SUKSDORFIN]: the midpoint of inhibition in series [4], the IC50, lay at 2600 nM.

As for `C=C(C)[C@@H]1CC[C@]2(C(=O)O)CC[C@]3(C)[C@H](CC[C@@H]4[C@@]5(C)CC[C@H](OC(=O)CC(C)(C)C(=O)O)C(C)(C)[C@@H]5CC[C@]43C)[C@@H]12` [BEVIRIMAT], in series [5], the EC50 worked out at 10.3 nM.
